Data taken from patent USRE48461E1, “Modulation of androgen receptor expression” (Ionis Pharmaceuticals, Inc., priority 2012, dated 2021).
Oligonucleotides are written 5' to 3', each unit as a sugar letter and its base; * is a phosphorothioate linkage, no mark a phosphodiester; rarer units and linkages stand in square brackets, end groups in braces. Plain capitals give the bases only. k = constrained ethyl (cEt); [5mC] = 5-methylcytosine; d = 2'-deoxy (DNA)

Test system: KLK3 mRNA
Assay: KLK3 mRNA (AR target gene) in C4-2B MR cells
Assay type: cell-based, human

Substance	Percent inhibition of KLK3 mRNA in C4-2B MR cells (0.04 μM) [%]	Percent inhibition of KLK3 mRNA in C4-2B MR cells (0.20 μM) [%]	Percent inhibition of KLK3 mRNA in C4-2B MR cells (1.00 μM) [%]	Percent inhibition of KLK3 mRNA in C4-2B MR cells (5.00 μM) [%]	AR target gene KLK3 mRNA levels (C4-2B MR cells, 0.04-5.00 μM)
549372 (kA*kA*kG*dT*dT*dG*dT*dA*dG*dT*dA*dG*dT*k[5mC]*kG*k[5mC]) [compound 549372]	17	35	68	80	
GTTGATTTAATGGTTG (all phosphorothioate, sugars by position not given here; further chemistry not fully specified) [ISIS 549458]					reduced target gene levels in a dose dependent manner more extensively than treatment with ISIS 554221
549458 (kG*kT*kT*dG*dA*dT*dT*dT*dA*dA*dT*dG*dG*kT*kT*kG) [compound 549458]	0	42	81	92	
